Results as given in patent US20250066363A1, “Bicyclic DGK Inhibitors” (Incyte Corporation, priority 2023, published 2025).

What was measured:
DGKα = DGKα (Homo sapiens (Human), UniProt P23743); assay: In vitro DGKα inhibition assay (ADP-Glo); assay type: biochemical; settings: first column of Table A
Description: (§1) The DGKα and DGKζ biochemical reactions were performed using His-tagged human recombinant enzymes (Signal Chem, DGKα, #D21-10BH; DGKζ, #D30-1OH)) and DLG (Dilauroyl-sn-glycerol) lipid substrate (Signal Chem, #D430-59). ADP-Glo assay was performed using ADP-Glo™ kinase Assay kit (Promega, #V9104). The reactions were carried out in assay buffer containing 40 mM Tris, pH 7.5, 0.1% CHAPS, 0.1% Prionex, 40 mM NaCl, 5 mM MgCl2, 1 mM CaCl2, and 1 mM DTT. DGKα reactions contained 0.1 nM DGKα, 50 μM ATP, and 20 μM DLG. And DGKζ reactions contained 0.4 nM DGKζ, 30 μM ATP, and 20 μM DLG.
(§2) For compound inhibition studies, 40 nL test compound in DMSO was added to wells of white polystyrene plates in 384-well (Greiner, #784075) or 1536-well format (Greiner, #782075). Compounds were added with top concentration of 2 mM with 11 point, 3-fold dilution series. Enzyme solution (contains 2× DGK enzyme concentration in 1× assay buffer) was added to the plate in 2 μL/well volume, followed by 2 μL/well of substrate solution (contains 2× concentration of ATP and DLG substrate in 1× assay buffer). Plates were then centrifuged for 1 min at 1200 RPM and sealed or lidded. For 4 μL reaction volume, test compounds were therefore diluted 100× to final top concentration of 20 μM. After 90 minute incubation, reactions were quenched by addition of 2 μL/well Promega ADP-Glo Reagent, followed by centrifugation and lidding. After 60 min incubation, 2 μL/well Promega Kinase Detection Reagent was added, plates centrifuged, and incubated for 30 min. Plates were then read using Luminescence method on BMG PHERAstar FSX plate reader. Percent inhibition was calculated and IC50s were determined using 4-parameter fit in Genedata Screener. Labcyte Echo acoustic dispenser was used for compound addition, and Formulatrix Tempest liquid handler was used for all reagent dispenses.

DGKζ = DGKζ (Homo sapiens (Human), UniProt Q13574); assay: In vitro DGKζ inhibition assay (ADP-Glo); assay type: biochemical; settings: second column of Table A, head printed DGKα, presumably DGKζ; His-tagged human recombinant DGKζ 0.4 nM, 30 μM ATP, 20 μM DLG
Chain of DGKζ (Q13574 whole entry): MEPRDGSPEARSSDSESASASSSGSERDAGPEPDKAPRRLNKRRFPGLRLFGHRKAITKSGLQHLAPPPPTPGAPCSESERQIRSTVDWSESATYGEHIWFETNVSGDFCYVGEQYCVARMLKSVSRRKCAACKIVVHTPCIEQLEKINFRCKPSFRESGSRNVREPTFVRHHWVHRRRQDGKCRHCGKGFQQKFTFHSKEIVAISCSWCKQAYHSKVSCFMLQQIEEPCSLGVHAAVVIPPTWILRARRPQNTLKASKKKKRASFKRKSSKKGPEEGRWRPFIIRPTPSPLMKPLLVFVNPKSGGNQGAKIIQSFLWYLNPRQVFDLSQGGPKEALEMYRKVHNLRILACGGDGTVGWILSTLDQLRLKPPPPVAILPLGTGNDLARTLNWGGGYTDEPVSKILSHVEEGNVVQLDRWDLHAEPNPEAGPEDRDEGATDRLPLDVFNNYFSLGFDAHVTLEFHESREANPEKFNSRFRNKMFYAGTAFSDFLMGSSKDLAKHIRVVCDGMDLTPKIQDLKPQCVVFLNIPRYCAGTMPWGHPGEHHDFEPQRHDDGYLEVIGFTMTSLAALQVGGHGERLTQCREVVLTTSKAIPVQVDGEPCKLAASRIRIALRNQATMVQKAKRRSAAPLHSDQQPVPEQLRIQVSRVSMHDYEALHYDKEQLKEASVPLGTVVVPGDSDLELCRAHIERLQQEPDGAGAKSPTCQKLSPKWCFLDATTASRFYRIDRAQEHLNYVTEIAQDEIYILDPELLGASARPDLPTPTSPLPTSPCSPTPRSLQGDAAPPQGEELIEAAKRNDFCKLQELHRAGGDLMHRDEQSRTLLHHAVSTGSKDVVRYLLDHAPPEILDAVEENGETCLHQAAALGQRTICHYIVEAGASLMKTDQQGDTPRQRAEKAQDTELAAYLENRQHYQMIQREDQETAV
Description: as §1, §2

[1] = His-tagged human recombinant DGKα 0.1 nM, 50 μM ATP, 20 μM DLG

Chain of DGKα (P23743 whole entry): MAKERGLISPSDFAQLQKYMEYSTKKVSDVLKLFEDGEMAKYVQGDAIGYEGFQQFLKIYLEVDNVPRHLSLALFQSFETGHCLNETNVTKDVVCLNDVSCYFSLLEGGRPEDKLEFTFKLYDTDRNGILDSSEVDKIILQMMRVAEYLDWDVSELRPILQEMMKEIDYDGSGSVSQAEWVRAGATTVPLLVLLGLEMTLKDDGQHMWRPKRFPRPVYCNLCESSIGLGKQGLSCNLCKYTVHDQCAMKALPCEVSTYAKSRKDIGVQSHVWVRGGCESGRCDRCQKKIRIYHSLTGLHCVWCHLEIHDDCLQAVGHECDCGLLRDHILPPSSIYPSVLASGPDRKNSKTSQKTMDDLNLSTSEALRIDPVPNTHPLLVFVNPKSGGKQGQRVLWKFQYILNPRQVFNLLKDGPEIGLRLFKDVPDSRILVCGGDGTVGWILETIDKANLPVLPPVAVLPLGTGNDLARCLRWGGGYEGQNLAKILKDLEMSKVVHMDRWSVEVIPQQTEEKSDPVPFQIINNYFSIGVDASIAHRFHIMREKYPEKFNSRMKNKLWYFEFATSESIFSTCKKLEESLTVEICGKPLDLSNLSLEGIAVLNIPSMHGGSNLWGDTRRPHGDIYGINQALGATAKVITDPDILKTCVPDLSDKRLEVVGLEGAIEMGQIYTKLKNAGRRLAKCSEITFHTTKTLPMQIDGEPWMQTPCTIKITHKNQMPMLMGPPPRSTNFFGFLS

| Compound | IC50 (DGKα; [1]) | IC50 (DGKζ) | IC50 (DGKα; cell prints a figure instead of a class symbol (possibly a misprint of +)) |
| --- | --- | --- | --- |
| CC[C@@H]1CN(c2nc(=O)n(C)c3c2nc(C)n3C[C@H]2OCC[C@@H]2O)[C@@H](C)CN1[C@@H](CC)c1ccc(C(F)(F)F)cc1 [Example 69, 6-((2S,5R)-5-Ethyl-2-methyl-4-((S)-1-(4-(trifluoromethyl)phenyl)propyl)piperazin-1-yl)-9-(((2R,3S)-3-hydroxytetrahydrofuran-2-yl)methyl)-3,8-dimethyl-3,9-dihydro-2H-purin-2-one] | ≤ 10 nM | ≤ 10 nM |  |
| Cc1nc2c(N3C[C@@H](C)N([C@@H](c4ccc5ccc(C(F)(F)F)cc5n4)C(C)C)C[C@@H]3C)nc(=O)n(C)c2n1C[C@@H]1CCCO1 [Example 49, 6-((2S,5R)-2,5-Dimethyl-4-((R)-2-methyl-1-(7-(trifluoromethyl)quinolin-2-yl)propyl)piperazin-1-yl)-3,8-dimethyl-9-(((S)-tetrahydrofuran-2-yl)methyl)-3,9-dihydro-2H-purin-2-one] | ≤ 10 nM | ≤ 10 nM |  |
| CC[C@@H]1CN(c2nc(=O)n(C)c3c2nc(C)n3C[C@@H]2CCCO2)[C@@H](C)CN1[C@H](c1ccc(C(F)(F)F)cc1)C(C)C [Example 59, 6-((2S,5R)-5-Ethyl-2-methyl-4-((S)-2-methyl-1-(4-(trifluoromethyl)phenyl)propyl)piperazin-1-yl)-3,8-dimethyl-9-(((S)-tetrahydrofuran-2-yl)methyl)-3,9-dihydro-2H-purin-2-one] | ≤ 10 nM | ≤ 10 nM |  |
| Cc1nc2c(N3C[C@@H](C)N([C@@H](c4ccc(C(F)F)c(F)c4)C(C)C)C[C@@H]3C)nc(=O)n(C)c2n1C[C@@H]1CCCO1 [Example 56, 6-((2S,5R)-4-((R)-1-(4-(difluoromethyl)-3-fluorophenyl)-2-methylpropyl)-2,5-dimethylpiperazin-1-yl)-3,8-dimethyl-9-(((S)-tetrahydrofuran-2-yl)methyl)-3,9-dihydro-2H-purin-2-one] | ≤ 10 nM | ≤ 10 nM |  |
| Cc1nc2c(N3C[C@@H](C)N([C@H](c4ccc5cc(F)ccc5n4)C(C)C)C[C@@H]3C)nc(=O)n(C)c2n1C[C@@H]1CCCO1 [Example 47, 6-((2S,5R)-4-((S)-1-(6-Fluoroquinolin-2-yl)-2-methylpropyl)-2,5-dimethylpiperazin-1-yl)-3,8-dimethyl-9-(((S)-tetrahydrofuran-2-yl)methyl)-3,9-dihydro-2H-purin-2-one] | ≤ 10 nM | ≤ 10 nM |  |
| Cc1nc2c(N3C[C@@H](CO)N(C(c4ccc(C(F)(F)F)cc4)C4CC(F)(F)C4)C[C@@H]3C)nc(=O)n(C)c2n1C[C@@H]1CCCO1 (stereo partly drawn) [Example 41, 6-((2S,5S)-4-((3,3-Difluorocyclobutyl)(4-(trifluoromethyl)phenyl)methyl)-5-(hydroxymethyl)-2-methylpiperazin-1-yl)-3,8-dimethyl-9-(((S)-tetrahydrofuran-2-yl)methyl)-3,9-dihydro-2H-purin-2-one] |  | ≤ 10 nM | 1 nM |
| Cc1nc2c(N3C[C@@H](C)N(C(c4ccc(F)cc4)c4ccc(F)cc4)C[C@@H]3C)nc(=O)[nH]c2n1C[C@@H]1CCCO1 [Example 1, 6-((2S,5R)-4-(Bis(4-fluorophenyl)methyl)-2,5-dimethylpiperazin-1-yl)-8-methyl-9-(((S)-tetrahydrofuran-2-yl)methyl)-3,9-dihydro-2H-purin-2-one] | ≤ 10 nM | ≤ 100 nM |  |
| C[C@@H]1CN(c2nc(=O)n(C)c3c2nnn3C[C@H]2CCCO2)[C@@H](C)CN1C(c1ccc(C(F)(F)F)cn1)c1ccc(C(F)(F)F)cn1 [Example 33, 7-((2S,5R)-4-(Bis(5-(trifluoromethyl)pyridin-2-yl)methyl)-2,5-dimethylpiperazin-1-yl)-4-methyl-3-(((R)-tetrahydrofuran-2-yl)methyl)-3,4-dihydro-5H-[1,2,3]triazolo[4,5-d]pyrimidin-5-one] | ≤ 10 nM | ≤ 10 nM |  |
| CC[C@@H]1CN(c2nc(=O)n(C)c3c2nc(C)n3C[C@H]2OCC[C@H]2O)[C@@H](C)CN1[C@H](CC)c1ccc(C(F)(F)F)cc1 [Example 72, 6-((2S,5R)-5-ethyl-2-methyl-4-((R)-1-(4-(trifluoromethyl)phenyl)propyl)piperazin-1-yl)-9-(((2R,3R)-3-hydroxytetrahydrofuran-2-yl)methyl)-3,8-dimethyl-3,9-dihydro-2H-purin-2-one] | ≤ 10 nM | ≤ 10 nM |  |
| C[C@@H]1CN(c2nc(=O)n(C)c3c2ncn3C[C@@H]2CCCO2)[C@@H](C)CN1C(c1ccc(F)cc1)c1ccc(F)cc1 [Example 10, 6-((2S,5R)-4-(Bis(4-fluorophenyl)methyl)-2,5-dimethylpiperazin-1-yl)-3-methyl-9-(((S)-tetrahydrofuran-2-yl)methyl)-3,9-dihydro-2H-purin-2-one] | ≤ 10 nM | ≤ 10 nM |  |

Next, values leading:

| IC50 (DGKα; [1]) | IC50 (DGKζ) | IC50 (DGKα; cell prints a figure instead of a class symbol (possibly a misprint of +)) | Compound |
| --- | --- | --- | --- |
| ≤ 100 nM | ≤ 100 nM |  | Cc1nc2c(N3C[C@@H](C)N([C@H](c4ccc(C(F)(F)F)cc4)C(C)C)C[C@@H]3C)nc(=O)n(C)c2n1C[C@@H]1CCCO1 [Example 53, 6-((2S,5R)-2,5-Dimethyl-4-((S)-2-methyl-1-(4-(trifluoromethyl)phenyl)propyl)piperazin-1-yl)-3,8-dimethyl-9-(((S)-tetrahydrofuran-2-yl)methyl)-3,9-dihydro-2H-purin-2-one] |
| ≤ 10 nM | ≤ 10 nM |  | Cc1nc2c(N3C[C@@H](C)N(C(c4ccc(C(F)(F)F)cc4)C4CC(F)(F)C4)C[C@@H]3C)nc(=O)n(C)c2n1C[C@@H]1CCCO1 (single isomer, unassigned) [Example 15] |
| ≤ 10 nM | ≤ 10 nM |  | CC[C@@H]1CN(c2nc(=O)n(C)c3c2nnn3C[C@H]2CCCO2)[C@@H](C)CN1C(CC(C)C)c1ccc(Cl)cc1 (single isomer, unassigned) [Example 20] |
| ≤ 10 nM | ≤ 10 nM |  | Cc1nc2c(N3C[C@@H](C)N([C@H](c4ccc5ccc(C(F)(F)F)cc5n4)C(C)C)C[C@@H]3C)nc(=O)n(C)c2n1C[C@@H]1CCCO1 [Example 50, 6-((2S,5R)-2,5-dimethyl-4-((S)-2-methyl-1-(7-(trifluoromethyl)quinolin-2-yl)propyl)piperazin-1-yl)-3,8-dimethyl-9-(((S)-tetrahydrofuran-2-yl)methyl)-3,9-dihydro-2H-purin-2-one] |
| ≤ 10 nM | ≤ 10 nM |  | Cc1nc2c(N3C[C@@H](CO)N(C(c4ccc(F)cc4)c4ccc(F)cc4)C[C@@H]3C)nc(=O)n(C)c2n1C[C@@H]1CCCO1 [Example 3, 6-((2S,5S)-4-(Bis(4-fluorophenyl)methyl)-5-(hydroxymethyl)-2-methylpiperazin-1-yl)-3,8-dimethyl-9-(((S)-tetrahydrofuran-2-yl)methyl)-3,9-dihydro-2H-purin-2-one] |
| ≤ 10 nM | ≤ 10 nM |  | CC[C@@H]1CN(c2nc(=O)n(C)c3c2nnn3C[C@H]2CCCO2)[C@@H](C)CN1[C@H](CC)c1ccc(C(F)(F)F)cc1 [Example 31, 7-((2S,5R)-5-ethyl-2-methyl-4-((R)-1-(4-(trifluoromethyl)phenyl)propyl)piperazin-1-yl)-4-methyl-3-(((R)-tetrahydrofuran-2-yl)methyl)-3,4-dihydro-5H-[1,2,3]triazolo[4,5-d]pyrimidin-5-one] |
| ≤ 10 nM | ≤ 10 nM |  | CC(C)[C@H](c1ccc(Cl)cc1)N1C[C@H](C)N(c2nc(=O)n(C)c3c2ncn3CC2(O)CCCC2)C[C@H]1C [Example 58, 6-((2S,5R)-4-((R)-1-(4-chlorophenyl)-2-methylpropyl)-2,5-dimethylpiperazin-1-yl)-9-((1-hydroxycyclopentyl)methyl)-3-methyl-3,9-dihydro-2H-purin-2-one] |
| ≤ 10 nM | ≤ 10 nM |  | CC[C@@H]1CN(c2nc(=O)n(C)c3c2nc(C)n3C[C@@H]2CCCO2)[C@@H](C)CN1C(c1ccc(Cl)cc1)C1CC(F)(F)C1 (stereo partly drawn) [Example 37, 6-((2S,5R)-4-((4-Chlorophenyl)(3,3-difluorocyclobutyl)methyl)-5-ethyl-2-methylpiperazin-1-yl)-3,8-dimethyl-9-(((S)-tetrahydrofuran-2-yl)methyl)-3,9-dihydro-2H-purin-2-one] |
| ≤ 100 nM | ≤ 100 nM |  | C[C@@H]1CN(c2nc(=O)n(C)c3c2c(F)cn3C[C@@H]2CCCO2)[C@@H](C)CN1C(c1ccc(F)cc1)c1ccc(F)cc1 [Example 8, 4-((2S,5R)-4-(Bis(4-fluorophenyl)methyl)-2,5-dimethylpiperazin-1-yl)-5-fluoro-1-methyl-7-(((S)-tetrahydrofuran-2-yl)methyl)-1,7-dihydro-2H-pyrrolo[2,3-d]pyrimidin-2-one] |
